Test [1] concerns the target T1, recombinant HIV-1 integrase (Human immunodeficiency virus type 1 group M subtype B, UniProt P04585).
T1 construct: recombinant HIV-1 integrase
Description: Integrase strand transfer assay. It counts as biochemical. Particulars: compounds added after assembly, 10% DMSO, read-out: ST IC50. The protocol:
IC50 was determined for the compounds of the inventions based on data generated in strand transfer assays. The IC50 is a measure of the ability of the compounds tested to inhibit the integration of 3′-processed oligonucleotides by recombinant HIV-1 integrase.
Strand transfer assays were performed essentially as described in Hazuda, D. J.; Felock, P.; Hastings, J. C.; Pramanik, B.; Wolfe, A. J. Virol. 1997, 71, 7005-7011). Donor DNA (1.5 pmol/well), biotinylated on the 5′ end of the strand processed by integrase, was immobilized onto streptavidin-coated microtiter plates. Recombinant integrase (250 ng/well) was assembled onto the immobilized donor oligonucleotide in reaction buffer (20 mM Hepes, pH 7.6, 5 mM B-mercaptoethanol, 50 ug/mL bovine serum albumin) containing 30 mM MnCl2. Excess enzyme was removed, and the complexes were washed extensively prior to the addition of the target DNA substrate. The target DNA (0.75 pmoles/well) substrate was labeled on each 3′ end with FITC. After strand transfer, the FITC-labeled products were detected using an anti-FITC antibody conjugated with alkaline phosphatase (Roche) and a chemi-luminescent substrate (Tropix CSPD with Sapphire II enhancer, Applied Biosystems). The assay was performed in a final concentration of 10% DMSO. To specifically evaluate inhibition of strand transfer, compounds were added after assembly, just prior to the addition of the target DNA.
The results of the integrase strand transfer assay are reported as IC50 values. IC50 values were determined using a sigmoidal dose-response equation. The formula used for calculating % inhibition was: % Inhibition=[1−(sample counts/average of positive control)]*100.

For another test, the system named is NL4.3 virus. Description: Multi-cycle antiviral activity without and with human serum, p24 ELISA. Particulars: for Fold-change with HS: EC50 with 40% HS versus 10% FBS alone; for EC50: Human immunodeficiency virus 1, 144 h. For orientation: An ELISA detects its analyte on a solid surface through an enzyme-linked reagent.
The test system of the next test is wild type NL-4.3. Nature of the test: Multi-cycle infection assay in MT-4 cells, MTT cytoprotection readout. The test is classed as cell-based, HIV-1. Particulars: read-out: EC50 (nM) multi-cycle. The protocol:
The antiviral efficacies of the integrase inhibitor compounds of the invention were evaluated based on EC50 measures obtained from two different in vitro HIV infection assay using cultured MT-4 cells: (1) a multi-cycle infection where cells were infected with wild type NL-4.3) and (2) a single-cycle infection where the cells were infected with a luciferase-bearing, envelope defective (env-) NL-4.3 virus pseudotyped with HIV-1 env (HXBc2.
The incubation period for the multi-cycle infection assay was 6 days. Cell viability (cytoprotection) and EC50 were determined using the colorimetric MTT assay (A. J. Japour et al, Antimicrobial Agents and Chemotherapy, 37, 1095-1101, 1993 and R. Pauwels et al. Journal of Virological Methods, 20, 309-321, 1988).

The mark [2] stands for this setting: read-out: EC50 (uM) 10% FBS + 40% HS.
[3] abbreviates: Human immunodeficiency virus 1, MT4, 144 h, MT-4 cells, 6 days incubation, MTT.

SMILES strings stand for the structures. Like-named read-outs stand apart in the source and are kept apart here.

Description for NL4.3 virus: The multi-cycle antiviral activity in the absence and presence of human serum was determined by p24 ELISA measurement after 6 days of NL4.3 virus infection.

Take `O=C(NO)c1ncc([C@@H](O)c2ccc(F)c(Cl)c2)c(CO)c1O` [Example 11, (S)-5-((3-Chloro-4-fluorophenyl)(hydroxy)methyl)-N,3-dihydroxy-4-(hydroxymethyl)picolinamide]: the half-maximal inhibitory concentration (IC50) in test [1] stood at 23 nM. The “Fold-change with HS” value in the test with NL4.3 virus was 1. In addition, the figures for the concentration for a half-maximal effect (EC50) in the test with NL4.3 virus (read-out: EC50 (uM) 10% FBS), in the test on NL4.3 virus (setting [2]) and in the test on wild type NL-4.3 (setting [3]) were 0.001 µM, 0.001 µM and 2 nM, respectively.

For the compound `Cc1c(Cc2ccc(F)cc2)cnc(C(=O)NO)c1O` [Example 7, 5-(4-fluorobenzyl)-N,3-dihydroxy-4-methylpicolinamide], the EC50 in the test with wild type NL-4.3 (setting [3]) amounted to 21 nM.

For the compound `Cc1nnc(C(=O)NC(C)(C)c2nc(C(=O)NCc3ccc(F)cc3)c(O)c(=O)n2C)o1` [Raltegravir, reference compound], the EC50 in the test on NL4.3 virus (read-out: EC50 (uM) 10% FBS) turned out to be 0.047 µM; in the test on NL4.3 virus (setting [2]), 0.064 µM; in the test with wild type NL-4.3 (Human immunodeficiency virus 1, MT4, 144 h), 20 nM.

For `CONC(=O)c1ncc(C(O)c2ccc(F)cc2)c(CO)c1O` (stereo not drawn) [Example 6, 5-((4-fluorophenyl)(hydroxy)methyl)-3-hydroxy-4-(hydroxymethyl)-N-methoxypicolinamide], the EC50 with wild type NL-4.3 (setting [3]) amounted to 74 nM.

Turning to `O=C(NO)c1ncc(C(O)c2ccc(F)cc2)c(CO)c1O` (stereo not drawn) [Example 3, 5-((4-fluorophenyl)(hydroxy)methyl)-N,3-dihydroxy-4-(hydroxymethyl)picolinamide], in the test with wild type NL-4.3 (setting [3]), the concentration for a half-maximal effect (EC50) worked out at 2 nM.

For `O=C(NO)c1ncc(Cc2ccc(F)cc2)c(CO)c1O` [Example 2, 5-(4-fluorobenzyl)-N,3-dihydroxy-4-(hydroxymethyl)picolinamide], in test [1], the IC50 is 35 nM. The EC50 in the test on wild type NL-4.3 (setting [3]) turned out to be 10 nM.

Turning to `O=C(O)C(O)=CC(=O)c1cc(OCc2ccccc2)cc(OCc2ccccc2)c1` [Example L-708906, reference compound], the concentration for half-maximal inhibition (IC50) in test [1] stood at 45 nM. Moreover, the 50% effective concentration (EC50) in the test with wild type NL-4.3 (MT-4 cells, 6 days incubation, MTT) stood at 5800 nM.

Turning to `CN(O)C(=O)c1ncc(C(O)c2ccc(F)cc2)c(CO)c1O` (stereo not drawn) [Example 5, 5-((4-fluorophenyl)(hydroxy)methyl)-N,3-dihydroxy-4-(hydroxymethyl)-N-methylpicolinamide], in the test on wild type NL-4.3 (setting [3]), the 50% effective concentration (EC50) was found to be 421 nM.

`Cc1c(C(=O)c2ccc(F)cc2)cnc(C(=O)NO)c1O` [Example 9, 5-(4-fluorobenzoyl)-N,3-dihydroxy-4-methylpicolinamide]: the EC50 in the test with wild type NL-4.3 (setting [3]) was 6680 nM.

With `Cc1c(/C(=N/O)c2ccc(F)cc2)cnc(C(=O)NO)c1O` [Example 10, (E)-5-((4-fluorophenyl)(hydroxyimino)methyl)-N,3-dihydroxy-4-methylpicolinamide], the EC50 with wild type NL-4.3 (setting [3]) turned out to be 49 nM.

For `Cc1c(C(O)c2ccc(F)cc2)cnc(C(=O)NO)c1O` (stereo not drawn) [Example 8, 5-((4-fluorophenyl)(hydroxy)methyl)-N,3-dihydroxy-4-methylpicolinamide], the half-maximal effective concentration (EC50) in the test on wild type NL-4.3 (setting [3]) was 8 nM.

Turning to `O=C(NO)c1ncc([C@H](O)c2ccc(F)c(Cl)c2)c(CO)c1O` [Example 1, (R)-5-((3-Chloro-4-fluorophenyl)(hydroxy)methyl)-N,3-dihydroxy-4-(hydroxymethyl)picolinamide], in test [1], the half-inhibitory concentration (IC50) was 56 nM. Further, in the test on NL4.3 virus, the “Fold-change with HS” value is recorded as 1. For the same compound, the figures for the EC50 in the test on NL4.3 virus (read-out: EC50 (uM) 10% FBS), in the test with NL4.3 virus (setting [2]) and in the test with wild type NL-4.3 (setting [3]) were 0.006 µM, 0.006 µM and 4 nM, respectively.

The IC50 is the midpoint of a concentration-inhibition curve. By EC50 is commonly meant the concentration that produces a half-maximal response.
